Laboratory results as given in PMC6356855, “Two New Succinimide Derivatives Cladosporitins A and B from the Mangrove-derived Fungus Cladosporium sp. HNWSW-1” (Marine Drugs, 2018).

Tests used:
Hela cell line = experiment: MTT cytotoxicity assay, Hela; type: cell-based; conditions: MTT method, mean ± SD, n = 3
Description: (§1) The MTT method optimized by Mosmann et al. was performed in vitro to test the cytotoxic activity of compounds 1–6. Adriamycin was used as a positive control and the medium without the test compound was used as a negative control in the bioassay.

BEL-7042 cell line = experiment: MTT cytotoxicity assay, BEL-7042; type: cell-based; conditions: MTT method, mean ± SD, n = 3
Description: as §1

α-glycosidase = α-glycosidase inhibitory activity assay; type: biochemical; conditions: α-glycosidase inhibition in vitro; mean ± SD, n = 3
Description: The method optimized by Jong et al. was performed in vitro to test the α-glucosidase inhibitory activity of compounds 1–5. Acarbose was used as positive control.

SGC-7901 cell line = experiment: MTT cytotoxicity assay, SGC-7901; type: cell-based; conditions: MTT method, mean ± SD, n = 3
Description: as §1

K562 cell line = experiment: MTT cytotoxicity assay, K562; type: cell-based; conditions: MTT method, mean ± SD, n = 3
Description: as §1

[1] = Homo sapiens, SGC-7901, cytotoxicity
[2] = Homo sapiens, K562, cytotoxicity

Compound | IC50 (Hela cell line) | IC50 (BEL-7042 cell line) | IC50 (α-glycosidase) | IC50 (SGC-7901 cell line; cytotoxicity) | IC50 (K562 cell line; cytotoxicity) | IC50 (Hela cell line; Homo sapiens) | IC50 (SGC-7901 cell line; [1]) | IC50 (K562 cell line; [2])
1,3,6-trihydroxy-7-(1-hydroxyethyl) anthracene-9,10-dione [Compound 5] | > 50 µM | > 50 µM | 49.3 ± 10.6 µM | > 50 µM | > 50 µM | – | – | –
C[C@H]1O[C@H](O[C@H]2[C@H](O)[C@@H](O)[C@@H](O[C@H]3[C@H](O)[C@@H](O)C(O)O[C@@H]3CO)O[C@@H]2CO)[C@H](O)[C@@H](O)[C@@H]1N[C@H]1C=C(CO)[C@@H](O)[C@H](O)[C@H]1O (stereo partly drawn) [Acarbose, reference compound] | – | – | 275.7 ± 2.7 µM | – | – | – | – | –
COc1cccc2c1C(=O)c1c(O)c3c(c(O)c1C2=O)C[C@@](O)(C(=O)CO)C[C@@H]3O[C@H]1C[C@H](N)[C@H](O)[C@H](C)O1 [Adriamycin, reference compound] | – | 11.9 ± 0.37 µM | – | – | – | 11.5 ± 0.18 µM | 6.66 ± 0.2 µM | 14.2 ± 0.66 µM
CCC(C)C=C(C)C1C(C)=CC2(C)CC(C)CCC2C1C(=O)C1C(=O)NC(=O)C1Cc1ccc(O)cc1 (stereo not drawn) [Compound 1, cladosporitin A] | – | > 50 µM | > 500 µM | – | – | > 50 µM | > 50 µM | > 50 µM
CCC(C)C=C(C)C1C(C)=CC2(C)CC(C)CCC2C1C(=O)C1C(=O)NC(=O)C1Cc1ccc(O)cc1 (stereo not drawn) [Compound 2, cladosporitin B] | > 50 µM | 29.4 ± 0.35 µM | > 500 µM | 41.7 ± 0.71 µM | 25.6 ± 0.47 µM | – | – | –
C/C=C/c1cc(=O)c2c(C)cc(O)cc2o1 [Compound 3, clapone] | – | > 50 µM | > 500 µM | – | – | > 50 µM | > 50 µM | > 50 µM
CCC(C)/C=C(\C)[C@H]1C(C)=C[C@@]2(C)C[C@@H](C)CC[C@@H]2[C@H]1C(=O)C1=C/C(=C/c2ccc(O)cc2)NC1=O (stereo partly drawn) [Compound 4, talaroconvolutin A] | – | 26.7 ± 1.1 µM | 78.2 ± 2.1 µM | – | – | 14.9 ± 0.21 µM | > 50 µM | > 50 µM
